From PubChem BioAssay (NCI)
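Where inhibition never reached the appropriate level, the endpoint shown equals the highest concentration tested. Otherwise, values were interpolated linearly from a five-concentration, 48-hour dose response in 96-well plates. GI50 is the concentration that inhibits growth by half. The concentration for full growth arrest is given as TGI.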

Experiments:
Experiment in all cases: growth of human tumour cells (NCI), 48 h
[1] = system: SK-MEL-2 melanoma
[2] = system: OVCAR-8 ovarian
[3] = system: SNB-19 CNS
[4] = system: HT29 colon
[5] = system: MALME-3M melanoma
[6] = system: HCT-116 colon
[7] = system: KM12 colon
[8] = system: RPMI-8226 leukemia
[9] = system: OVCAR-5 ovarian
[10] = system: CAKI-1 renal
[11] = system: PC-3 prostate
[12] = system: HS 578T breast

| SMILES | TGI [1] [µM] | TGI [2] [µM] | TGI [3] [µM] | TGI [4] [µM] | TGI [5] [µM] | TGI [6] [µM] | TGI [7] [µM] | TGI [8] [µM] | TGI [9] [µM] | TGI [10] [µM] | TGI [11] [µM] | TGI [12] [µM] | GI50 [1] [µM] | GI50 [8] [µM] | GI50 [4] [µM] | GI50 [9] [µM] | GI50 [11] [µM] | GI50 [10] [µM] | GI50 [12] [µM] |
| --- | --- | --- | --- | --- | --- | --- | --- | --- | --- | --- | --- | --- | --- | --- | --- | --- | --- | --- | --- |
| CN(C)c1nc(N(C)C)nc(N(C)CN(C)c2ccccc2)n1 | > 100 | > 100 | > 100 | > 100 | > 100 | > 100 | > 100 |  |  |  |  |  |  |  |  |  |  |  |  |
| COc1ccc2c(=O)c([Se]c3coc4cc(OC)ccc4c3=O)coc2c1 | > 100 | > 100 | > 100 | > 100 | > 100 | 44.1 | > 100 | > 100 | > 100 | > 100 |  |  |  |  |  |  |  |  |  |
| CC(=O)OCC1C(C(C)OC(C)=O)CCC2C1CCC1(C)C(OC(C)=O)CCC21 (stereo not given) |  | 46.2 | 42.5 | 32.8 | 37 | 29.2 | 31.3 | 69.9 | > 100 | > 100 |  |  |  |  |  |  |  |  |  |
| C=C1c2nc3ccccc3n2C=C(c2ccc(Cl)cc2)N1c1ccc(OCCN2CCOCC2)cc1 | 29.1 |  | > 100 | > 100 | > 100 | > 100 | > 100 | 10.9 | > 100 |  | > 100 | > 100 |  |  |  |  |  |  |  |
| O=C(NC(=O)c1cn(CCN2CCNCC2)c(=O)[nH]c1=O)OCc1ccccc1 |  | > 100 |  | > 100 | > 100 | > 100 | > 100 | > 100 | > 100 | > 100 |  |  |  |  |  |  |  |  |  |
| COc1ccc(/C=C2/C(=O)N(C(=O)c3ccccc3O)N=C2C)cc1OC | > 30.9 | > 100 |  | > 100 | > 100 | > 100 | > 100 | > 100 | > 100 | > 28.1 | > 100 |  |  |  |  |  |  |  |  |
| COc1cc2cc3c4c(cc(OC)c(OC)c4c2cc1OC)CCN3C(=O)CCCC(=O)O | > 100 |  | > 100 | > 100 | > 100 | > 100 | > 100 | > 100 | > 100 | > 100 |  |  |  |  |  |  |  |  |  |
| COc1cc(/C=C2\C(=O)N(c3cccc(Cl)c3)C(c3ccccc3)S2(=O)=O)cc(OC)c1OC (stereo not given) | > 100 | > 100 | > 100 | > 100 | > 100 | > 100 | > 100 | 80.1 | > 100 | > 100 |  | > 100 |  |  |  |  |  |  |  |
| COCCO | > 100 | > 100 | > 100 | > 100 | > 100 | > 100 | > 100 | > 100 | > 100 | > 100 |  |  |  |  |  |  |  |  |  |
| CC(/C=C/c1ncccc1OCCCCCC(=O)O)=N\NC1=NCCN1 | > 100 | > 100 | > 100 | > 100 | > 100 | > 100 | > 100 | > 100 | > 100 | > 100 |  |  |  |  |  |  |  |  |  |
| C=C1CC(OC(C)=O)/C=C(/C)CCC(C(C)(C)O)CC1O (stereo not given) | > 100 | > 100 | > 100 | > 100 | > 100 | > 100 | > 100 |  | > 100 | > 100 | > 100 | > 100 |  |  |  |  |  |  |  |
| CSc1ccc2c(c1)c(CCN)c(C)n2Cc1ccc(Cl)c(Cl)c1 | 3.34 |  |  | 2.92 |  |  |  | 4.66 | 3.13 | 3.85 | 3.11 | 4.8 | 1.74 | 2.14 | 1.49 | 1.51 | 1.67 | 1.82 | 2.05 |
| NS(=O)(=O)c1nnc(NC(=O)CCC(=O)O)s1 | > 100 | > 100 | > 100 | > 100 | > 100 | > 100 | > 100 | > 100 | > 100 | > 100 |  | > 100 |  |  |  |  |  |  |  |
| Nc1[nH]c(=O)nc2sc3c(c12)CCCC3 | > 100 | > 100 | > 100 | > 100 | > 100 | > 100 | > 100 | > 100 | > 100 |  | > 100 | 71.9 |  |  |  |  |  |  |  |
| O=c1[nH]c(=S)[nH]c2c1sc(=S)n2-c1ccccc1 | > 100 | > 100 | > 100 | > 100 | > 100 | > 100 | > 100 | > 100 | > 100 | > 100 |  |  |  |  |  |  |  |  |  |
| O=C(CSc1nc2ccc(I)cc2c(=O)n1Cc1ccccc1)N/N=C/c1ccccc1 | 35.6 | 60.5 | 49.1 | > 100 |  | > 100 | > 100 | > 100 | > 100 | 23 | 28.6 | 9.09 |  |  |  |  |  |  |  |
| CCCCCCc1nn2c(-c3ccc(C)cc3)nnc2s1 | > 100 | > 100 | > 100 | > 100 |  | > 100 | > 100 | > 100 | > 100 | > 100 | > 100 | > 100 |  |  |  |  |  |  |  |
| COC1/C=C/C(C)C(OC)CC(O)/C=C/C(C)C(C(C)C(OC)C(C)CCC(=O)C(C)C(C/C=C/N(C)C=O)OC)OC(=O)/C=C/C=C(\C)CC(OC)C(OC)C2=CC(=O)O[C@@H](C(C)C(OC)C1)[C@H]2O (stereo not given in full) |  | 0.199 | 0.244 | > 25 | 0.115 | 0.0613 |  | 3.24 | 0.118 | 0.0526 | 0.0862 | 0.093 |  |  |  |  |  |  |  |
| N#CC12COC3(CCCCC3C1(C#N)C#N)OC2=N (stereo not given) | 25.3 |  | 36 | 26.1 | 35.6 | 25.1 |  |  | 30.4 | 14.2 | 27.3 | 44.7 |  |  |  |  |  |  |  |
| NNC(N)=Nc1cccc2ccccc12 |  | > 100 | > 100 | > 100 | > 100 | > 100 | > 100 | > 100 | > 100 |  |  | > 100 |  |  |  |  |  |  |  |
| Cc1ccc2nc3c(C(=O)NCCN(C)C)cccc3cc2c1 | 5.3 | 4.87 | 6.34 | 4.79 | 4.58 | 6.71 | 12.6 | 7.12 | 5.64 |  |  |  |  |  |  |  |  |  |  |
